Test results published in patent US7605178B2, “Therapeutic compounds” (Allergan, Inc., priority 2006, dated 2009).

Key:
EP2 [1] = molecular target: T1, EP2 (Homo sapiens, UniProt P43116); assay: EP2 flipr; assay type: cell-based
Text: (§1) U.S. patent application Ser. No. 11/553,143, filed on Oct. 26, 2006, incorporated by reference herein, describes the methods used to obtain the in vitro data in the table below.

EP2 [2] = molecular target: T1, EP2; assay: EP2 cAMP; assay type: cell-based
Text: as §1

EP2 [3] = molecular target: T1, EP2; assay: EP2 binding (Ki)
Text: as §1

EP4 [4] = molecular target: T2, EP4 (Homo sapiens, UniProt P35408); assay: EP4 flipr; assay type: cell-based
T2 sequence (P35408 whole entry): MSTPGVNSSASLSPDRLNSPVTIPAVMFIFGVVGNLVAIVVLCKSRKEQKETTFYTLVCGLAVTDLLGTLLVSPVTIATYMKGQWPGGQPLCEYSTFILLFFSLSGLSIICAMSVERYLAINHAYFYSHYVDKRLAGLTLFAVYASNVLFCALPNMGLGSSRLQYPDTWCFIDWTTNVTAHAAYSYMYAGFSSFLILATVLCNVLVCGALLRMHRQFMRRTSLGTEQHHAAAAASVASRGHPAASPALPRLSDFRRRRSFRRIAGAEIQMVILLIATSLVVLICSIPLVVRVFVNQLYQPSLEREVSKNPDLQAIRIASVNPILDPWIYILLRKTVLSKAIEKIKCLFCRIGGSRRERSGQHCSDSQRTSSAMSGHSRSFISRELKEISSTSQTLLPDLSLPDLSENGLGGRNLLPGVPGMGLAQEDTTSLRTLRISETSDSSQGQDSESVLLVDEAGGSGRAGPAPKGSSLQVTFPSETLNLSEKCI
Text: as §1

EP4 [5] = molecular target: T2, EP4; assay: EP4 binding (KI)
Text: as §1

hEP3A = molecular target: T3, hEP3A (Homo sapiens, UniProt P43115); assay: Other receptors: hEP3A functional EC50; assay type: cell-based
T3 sequence (P43115 1-390): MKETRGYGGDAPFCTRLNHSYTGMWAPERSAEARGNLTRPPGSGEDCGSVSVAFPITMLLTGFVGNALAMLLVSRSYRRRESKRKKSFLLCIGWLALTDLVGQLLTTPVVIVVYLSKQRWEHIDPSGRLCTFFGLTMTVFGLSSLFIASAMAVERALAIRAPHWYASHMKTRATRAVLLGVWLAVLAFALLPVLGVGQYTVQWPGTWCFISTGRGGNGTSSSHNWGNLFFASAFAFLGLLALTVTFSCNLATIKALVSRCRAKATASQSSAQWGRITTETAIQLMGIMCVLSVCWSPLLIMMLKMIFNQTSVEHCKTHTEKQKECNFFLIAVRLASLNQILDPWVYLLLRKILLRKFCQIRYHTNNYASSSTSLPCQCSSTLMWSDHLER
Text: as §1

hTP = molecular target: T4, hTP (Homo sapiens, UniProt P21731); assay: Other receptors: hTP functional EC50; assay type: cell-based
T4 sequence (P21731 1-343): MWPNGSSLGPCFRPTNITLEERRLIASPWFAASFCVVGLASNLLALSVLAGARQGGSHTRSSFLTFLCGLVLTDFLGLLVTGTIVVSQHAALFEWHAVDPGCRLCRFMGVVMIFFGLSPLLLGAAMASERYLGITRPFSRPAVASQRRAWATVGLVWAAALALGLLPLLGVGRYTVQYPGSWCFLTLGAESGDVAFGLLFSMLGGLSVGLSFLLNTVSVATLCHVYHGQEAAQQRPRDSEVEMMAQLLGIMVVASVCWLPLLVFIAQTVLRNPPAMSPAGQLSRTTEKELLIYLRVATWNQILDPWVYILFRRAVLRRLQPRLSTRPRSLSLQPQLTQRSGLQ
Text: as §1

hIP = hIP (Homo sapiens, UniProt P43119); assay: Other receptors: hIP functional EC50; assay type: cell-based
Chain of hIP (P43119 whole entry): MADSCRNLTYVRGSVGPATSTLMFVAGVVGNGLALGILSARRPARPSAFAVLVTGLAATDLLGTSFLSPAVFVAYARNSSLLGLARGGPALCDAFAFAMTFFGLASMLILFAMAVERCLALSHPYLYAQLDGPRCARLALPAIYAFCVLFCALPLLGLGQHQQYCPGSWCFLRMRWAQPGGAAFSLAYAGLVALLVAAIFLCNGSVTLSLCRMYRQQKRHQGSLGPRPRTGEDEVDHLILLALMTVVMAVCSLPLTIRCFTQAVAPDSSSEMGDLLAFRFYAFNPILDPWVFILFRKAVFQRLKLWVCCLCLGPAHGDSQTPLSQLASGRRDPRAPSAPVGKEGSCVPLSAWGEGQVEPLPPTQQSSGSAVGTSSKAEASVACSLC
Text: as §1

hDP = molecular target: T5, hDP (Homo sapiens, UniProt Q13258); assay: Other receptors: hDP functional EC50; assay type: cell-based
T5 sequence (Q13258 1-359): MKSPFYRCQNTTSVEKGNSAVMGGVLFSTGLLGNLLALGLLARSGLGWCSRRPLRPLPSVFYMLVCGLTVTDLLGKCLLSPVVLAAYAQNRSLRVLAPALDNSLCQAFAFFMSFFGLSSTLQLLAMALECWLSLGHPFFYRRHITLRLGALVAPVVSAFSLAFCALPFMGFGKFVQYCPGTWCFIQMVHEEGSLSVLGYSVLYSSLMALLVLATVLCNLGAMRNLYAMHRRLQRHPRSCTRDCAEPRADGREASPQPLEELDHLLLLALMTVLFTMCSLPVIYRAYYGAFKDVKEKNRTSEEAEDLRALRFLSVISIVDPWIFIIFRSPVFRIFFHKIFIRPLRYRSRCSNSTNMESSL
Text: as §1

normotensive dogs = assay: Intraocular pressure and ocular surface hyperemia in normotensive dogs; assay type: in vivo; details: 0.01%, once daily for 5 days
Protocol: (§2) U.S. Pat. No. 7,091,231 describes the methods used for these in vivo tests.
5-(3-((1R,2R,3R,5R)-5-chloro-2-((3,5-dichlorophenylthio)methyl)-3-hydroxycyclopentyl)propyl)-thiophene-2-carboxylic acid (20) was tested in normotensive dogs at 0.01%, dosing once daily for 5 days. The maximum intraocular pressure (IOP) decrease from baseline was 6.3 mmHg (35%) at 6 h; the maximum ocular surface hyperemia (OSH) score was 1.7 at 52 h.

[6] = system: laser-induced hypertensive monkeys; assay: Intraocular pressure in laser-induced hypertensive monkeys; assay type: in vivo; details: 0.01%, one single day dose, at 24 h
Protocol: as §2
The composition and dosage regimen of In vivo example 1 was also tested in laser-induced hypertensive monkeys, using one single day dose. At 0.01%, the maximum IOP decrease from baseline was 13.9 mmHg (40%) at 24 h.

T1 sequence (P43116 whole entry): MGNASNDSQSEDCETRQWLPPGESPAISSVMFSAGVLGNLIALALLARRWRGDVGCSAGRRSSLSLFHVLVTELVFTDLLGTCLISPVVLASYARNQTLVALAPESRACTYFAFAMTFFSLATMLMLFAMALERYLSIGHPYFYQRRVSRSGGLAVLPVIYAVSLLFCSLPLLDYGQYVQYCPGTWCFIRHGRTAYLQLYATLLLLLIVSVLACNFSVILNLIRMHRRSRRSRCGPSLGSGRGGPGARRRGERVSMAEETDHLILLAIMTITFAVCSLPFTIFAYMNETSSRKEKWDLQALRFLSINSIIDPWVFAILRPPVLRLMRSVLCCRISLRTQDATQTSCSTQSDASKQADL

| Structure (SMILES) | EC50 (EP2 [1]) [nM] | EC50 (EP2 [2]) [nM] | Ki (EP2 [3]) [nM] | EC50 (EP4 [4]) [nM] | Ki (EP4 [5]) [nM] | EC50 (hEP3A) [nM] | EC50 (hTP) [nM] | EC50 (hIP) [nM] | EC50 (hDP) [nM] | maximum ocular surface hyperemia (OSH) score (normotensive dogs; at 52 h) | maximum intraocular pressure (IOP) decrease from baseline (percent) (normotensive dogs; at 6 h) [%] | maximum IOP decrease from baseline [6] [mmHg] | maximum IOP decrease from baseline (percent) [6] [%] |
| --- | --- | --- | --- | --- | --- | --- | --- | --- | --- | --- | --- | --- | --- |
| O=C(O)CCC/C=C\C[C@@H]1[C@@H](CSc2cc(Cl)cc(Cl)c2)[C@H](O)C[C@H]1Cl [compound 5, (Z)-7-[(1R,2R,3R,5R)-5-Chloro-2-(3,5-dichloro-phenylsulfanylmethyl)-3-hydroxy-cyclopentyl]-hept-5-enoic acid] | 3360 | 0.4 | 22 | > 10000 | 376 | > 10000 | 1720 | > 10000 | > 10000 |  |  |  |  |
| CC(=O)N(C[C@@H]1[C@@H](C/C=C\CCCC(=O)O)[C@H](Cl)C[C@H]1O)c1cc(Cl)cc(Cl)c1 [compound 10, (Z)-7-((1R,2S,3R,5R)-2-{[Acetyl-(3,5-dichloro-phenyl)-amino]-methyl}-5-chloro-3-hydroxy-cyclopentyl)-hept-5-enoic acid] | 6370 | 29 | 2090 |  | > 10000 |  | 2680 | > 10000 |  |  |  |  |  |
| O=C(O)CCC/C=C\C[C@@H]1[C@@H](CNc2cc(Cl)cc(Cl)c2)[C@H](O)C[C@H]1Cl [compound 11, (Z)-7-{(1R,2S,3R,5R)-5-Chloro-2-[(3,5-dichloro-phenylamino)-methyl]-3-hydroxy-cyclopentyl}-hept-5-enoic acid] | 135 | 0.5 | 18 | > 10000 | 1030 | > 10000 | > 10000 | > 10000 |  |  |  |  |  |
| O=C(O)c1ccc(CCC[C@@H]2[C@@H](CNc3cc(Cl)cc(Cl)c3)[C@H](O)C[C@H]2Cl)s1 [compound 15, 5-(3-((1R,2S,3R,5R)-5-chloro-2-((3,5-dichlorophenylamino)methyl)-3-hydroxycyclopentyl)propyl)-thiophene-2-carboxylic acid] | > 10000 | 110 | 336 |  |  |  |  |  |  |  |  |  |  |

The next lines start with results.

| EC50 (EP2 [1]) [nM] | EC50 (EP2 [2]) [nM] | Ki (EP2 [3]) [nM] | EC50 (EP4 [4]) [nM] | Ki (EP4 [5]) [nM] | EC50 (hEP3A) [nM] | EC50 (hTP) [nM] | EC50 (hIP) [nM] | EC50 (hDP) [nM] | maximum ocular surface hyperemia (OSH) score (normotensive dogs; at 52 h) | Structure (SMILES) | maximum intraocular pressure (IOP) decrease from baseline (percent) (normotensive dogs; at 6 h) [%] | maximum IOP decrease from baseline [6] [mmHg] | maximum IOP decrease from baseline (percent) [6] [%] |
| --- | --- | --- | --- | --- | --- | --- | --- | --- | --- | --- | --- | --- | --- |
| 59 | 0.11 | 0.3 | > 10000 | 828 |  |  |  |  | 1.7 | O=C(O)c1ccc(CCC[C@@H]2[C@@H](CSc3cc(Cl)cc(Cl)c3)[C@H](O)C[C@H]2Cl)s1 [compound 20, 5-(3-((1R,2R,3R,5R)-5-chloro-2-((3,5-dichlorophenylthio)methyl)-3-hydroxycyclopentyl)propyl)-thiophene-2-carboxylic acid] | 35 | 13.9 | 40 |
| 101 | 0.4 | 12 |  | > 10000 |  | 4210 |  |  |  | O=C(O)c1ccc(CCC[C@@H]2[C@@H](C[S+]([O-])c3cc(Cl)cc(Cl)c3)[C@H](O)C[C@H]2Cl)s1 (stereo partly drawn) [compound 22, 5-(3-((1R,2R,3R,5R)-5-chloro-2-((3,5-dichlorophenylsulfinyl)methyl)-3-hydroxycyclopentyl)propyl)-thiophene-2-carboxylic acid] |  |  |  |
| 850 | 1.3 | 9 | > 10000 | 2330 |  |  |  |  |  | O=C(O)c1ccc(CCC[C@@H]2[C@@H](CSc3cc(F)cc(F)c3)[C@H](O)C[C@H]2Cl)s1 [compound 25, 5-(3-((1R,2R,3R,5R)-5-chloro-2-((3,5-difluorophenylthio)methyl)-3-hydroxycyclopentyl)propyl)-thiophene-2-carboxylic acid] |  |  |  |
